Literature values as cited in patent publication US20210115493A1, “METHODS FOR DETERMINING A DRUG DOSING REGIMEN” (Clear Creek Bio, Inc., priority 2019, published 2021).

Tests used:
solid tumor malignancies = conditions: administered over a 5-day period followed by a 3-week gap, or once per week for three weeks followed by a 1-week gap

Compound: Cc1c(-c2ccc(-c3ccccc3F)cc2)nc2ccc(F)cc2c1C(=O)O [brequinar, 6-fluoro-2-(2′-fluoro-1,1′biphenyl-4-yl)-3-methyl-4-quinoline carboxylic acid]
- efficacy in treatment of solid tumor malignancies (solid tumor malignancies): ineffective
- adverse effects of daily administration of high doses (mouse model of AML): weight loss, anemia, and thrombocytopenia
